The nature of data set [1]: LNP particle size (Z-average) and polydispersity index by dynamic light scattering. The data set is classed as physicochemical. Particulars: Table 36b, LNPs with circular RNA. As for the experimental part: The microfluidic chamber is cleaned with ethanol and neMYSIS syringe pumps are prepared by loading a syringe with the RNA solution and another syringe with the ethanolic lipid. Both syringes are loaded and under the control of neMESYS software. The solutions are then applied to the mixing chip at an aqueous to organic phase ratio of 2 and a total flow rate of 22 ml/min (14.67 ml/min for RNA and 7.33 ml/min for the lipid solution. Both pumps are started synchronously. The mixer solution that flowed from the microfluidic chip is collected in 4×1 ml fractions with the first fraction being discarded as waste. The remaining solution containing the circRNA-transfer vehicles is exchanged by using G-25 mini desalting columns to 10 mM Tris-HCl, 1 mM EDTA, at pH 7.5, as described above. Following buffer exchange, the materials are characterized for size, and RNA entrapment through DLS analysis and Ribogreen assays, respectively.
Lipid Nanoparticles (LNPs) were formed using a Precision Nanosystems Ignite instrument with a ‘NextGen’ mixing chamber. […] A 3:1 aqueous to ethanol mixing ratio was used. The formulated LNP then were dialyzed in 1 L of water and exchanged 2 times over 18 hours. Dialyzed LNPs were filtered using 0.2 μm filter. Prior to in vivo dosing, LNPs were diluted in PBS. LNP sizes were determined by dynamic light scattering. A cuvette with 1 mL of 20 μg/mL LNPs in PBS (pH 7.4) was measured for Z-average using the Malvern Panalytical Zetasizer Pro. The Z-average and polydispersity index were recorded.
Lipid Nanoparticles (LNPs) were formed using a Precision Nanosystems Ignite instrument with a ‘NextGen’ mixing chamber. […] A 3:1 aqueous to ethanol mixing ratio was used. The formulated LNPs were then dialyzed in 1 L of water and exchanged 2 times over 18 hours. Dialyzed LNPs were filtered using 0.2 μm filter. Prior to in vivo dosing, LNPs were diluted in PBS. LNP sizes were determined by dynamic light scattering. A cuvette with 1 mL of 20 μg/mL LNPs in PBS (pH 7.4) was measured for Z-average using the Malvern Panalytical Zetasizer Pro. The Z-average and polydispersity index were recorded.
Lipid Nanoparticles (LNPs) were formed using a Precision Nanosystems Ignite instrument with a ‘NextGen’ mixing chamber. […] A 3:1 aqueous to ethanol mixing ratio was used. The formulated LNPs were then dialyzed in 1 L of 1×PBS and exchanged 2 times over 18 hours. Dialyzed LNPs were filtered using 0.2 μm filter. Prior to in vivo dosing, LNPs were diluted in PBS. LNP sizes were determined by dynamic light scattering. A cuvette with 1 mL of 20 μg/mL LNPs in PBS (pH 7.4) was measured for Z-average using the Malvern Panalytical Zetasizer Pro. The Z-average and polydispersity index were recorded.

Data set [2] can be described thus: RNA encapsulation / entrapment by Ribogreen assay. The data set is classed as physicochemical. The following applies: Table 36b, LNPs with circular RNA. As for the experimental part:
A QUANT-IT™ RIBOGREEN® RNA assay (Invitrogen Corporation Carlsbad, Calif.) can be used to evaluate the encapsulation of circRNA by the nanoparticle composition. The samples are diluted to a concentration of approximately 5 μg/mL or 1 μg/mL in a TE buffer solution (10 mM Tris-HCl, 1 mM EDTA, pH 7.5). 50 μL of the diluted samples are transferred to a polystyrene 96 well plate and either 50 μL of TE buffer or 50 μL of a 2-4% Triton X-100 solution is added to the wells. The plate is incubated at a temperature of 37° C. for 15 minutes. The RIBOGREEN® reagent is diluted 1:100 or 1:200 in TE buffer, and 100 μL of this solution is added to each well. The fluorescence intensity can be measured using a fluorescence plate reader (Wallac Victor 1420 Multilabel Counter; Perkin Elmer, Waltham, Mass.) at an excitation wavelength of, for example, about 480 nm and an emission wavelength of, for example, about 520 nm. The fluorescence values of the reagent blank are subtracted from that of each of the samples and the percentage of free circRNA is determined by dividing the fluorescence intensity of the intact sample (without addition of Triton X-100) by the fluorescence value of the disrupted sample (caused by the addition of Triton X-100). C.
For transfer vehicle compositions including RNA, a QUANT-IT™ RIBOGREEN® RNA assay (Invitrogen Corporation Carlsbad, Calif.) can be used to evaluate the encapsulation of RNA by the transfer vehicle composition. […] The fluorescence intensity can be measured using a fluorescence plate reader (Wallac Victor 1420 Multilabel Counter; Perkin Elmer, Waltham, Mass.) at an excitation wavelength of, for example, about 480 nm and an emission wavelength of, for example, about 520 nm. The fluorescence values of the reagent blank are subtracted from that of each of the samples and the percentage of free RNA is determined by dividing the fluorescence intensity of the intact sample (without addition of Triton X-100) by the fluorescence value of the disrupted sample (caused by the addition of Triton X-100). […]

The test system of data set [3] is 1C1C7 cells. Nature of the data set: Modified IRES, stop codon cassettes, 5′ UTR variants: GLuc luminescence in 1C1C7 cells. The data set is classed as cell-based. Particulars: 24 and 48 hours after transfection. An excerpt: This example describes modifications of CK-739, AP-748, and PV-743 IRES sequences, including mutations alternative translation initiation sites.
This example describes modifications of circular RNAs by introducing stop codon or cassette variants. […] 1C1C7 cells were transfected with the circular RNAs.
This example describes modifications of circular RNAs by inserting 5′ UTR variants. […] 1C1C7 cells were transfected with the circular RNAs.

In data set [4] the test system is splenic immune cells. Nature of the data set: Cre circular RNA LNPs in Cre reporter (Ai9) mice: tdTomato+ splenic immune cells. The data set is classed as in vivo. The following applies: 0.5 mg/kg RNA intravenously, 48 hr, 0.5 mg/kg. As to the method:
Circular RNAs encoding Cre recombinase (Cre) are encapsulated into lipid nanoparticles as previously described. Female, 6-8 week old B6.Cg-Gt(ROSA)26Sortm9(CAG-tdTomato)Hze/J (Ai9) mice were dosed with lipid nanoparticles at 0.5 mg/kg RNA intravenously. Fluorescent tdTomato protein was transcribed and translated in Ai9 mice upon Cre recombination, meaning circular RNAs have been delivered to and translated in tdTomato+ cells. After 48 hr, mice were euthanized and the spleens were harvested, processed into a single cell suspension, and stained with various fluorophore-conjugated antibodies for immunophenotyping via flow cytometry.
Ai9 mice (B6.Cg-Gt(ROSA)26Sortm9(CAG-tdTomato)Hze/J, female, 6-8 weeks, n=3 per group) were injected i.v. with 0.5 mg/kg Cre oRNA LNPs or PBS. Ai9 mice transcribe and translate the fluorescent reporter tdTomato upon Cre recombination; meaning cells which are tdTomato+ have successfully been transfected with Cre oRNA.

The subject of data set [5] is HEK293 cells. Format: cell-based, human. The following applies: luminescence from secreted Gluc in supernatant 24 hours after transfection of HEK293 cells; circular RNA encoding Gluc with the named IRES (UTR truncated to 675 nt).

“Also recorded” adds a separate entry of the source.

In the case of `CCCCCCCCCCCCCCSCCOC(=O)CCN(CCCn1ccnc1C)CCC(=O)OCCSCCCCCCCCCCCCCC` [22-S14, bis(2-(tetradecylthio)ethyl) 3,3′-((3-(2-methyl-1H-imidazol-1-yl)propyl)azanediyl)dipropionate], in data set [1], the PDI worked out at 0.05 and the “Z-Average(nm)” value was determined as 64 nm. The “RNA Entrapment(%)” value in data set [2] worked out at 97%.
In the case of “UTR2: 5′ UTR variant: canonical Kozak sequence with "a 36-nucleotide unstructured/low GC spacer sequence" added (DNA AATAAGAGAGAAAAGAAGAGTAAGAAGAAATATAAGAGCCACC; expressed or natural sequence)”, the “translation / expression (luminescence in supernatant)” value in data set [3] is on record as “more effective”.
Turning to `CCCCCCCCC(CCCCCC)C(=O)OCCCCCCN(CCCCCCOC(=O)C(CCCCCC)CCCCCCCC)CCCn1ccnc1` (centres unmarked) [Lipid 26 from Table 10a], the “proportion of splenic immune cells expressing tdTomato (transfection)” value in data set [4] was “significantly higher myeloid and T cell transfection compared with Lipid 93-S14; also recorded: effective at delivering circular RNAs to many splenic immune cell subsets in mice”.
As for `CCCCCCCCCCCCCCSCCOC(=O)CCN(CCCn1ccnc1)CCC(=O)OCCSCCCCCCCCCCCCCC` [93-S14, bis(2-(tetradecylthio)ethyl) 3,3′-((3-(1H-imidazol-1-yl)propyl)azanediyl)dipropionate], in data set [1], the PDI came to 0.04 and the “Z-Average(nm)” value turned out to be 74 nm. For the same molecule, the “RNA Entrapment(%)” value in data set [2] was determined as 95%.
For `CCCCCCCCC(CCCCCC)C(=O)OCCCCCCN(CCCCCCOC(=O)C(CCCCCC)CCCCCCCC)CCCn1ccnc1` (centres unmarked) [Lipid 26, Table 10a], in that order: 0.04, 84 nm and 96%.
Turning to “UTR3: 5′ UTR variant: "a higher-GC/structured spacer with a kozak sequence" (DNA CGAACTAGTATTCTTCTGGTCCCCACAGACTCAGAGAGAACCCGCCACC; expressed or natural sequence)”, in data set [3], the “translation / expression (luminescence in supernatant)” value is “did not show the same benefit”.

B1: PSIV IGR (nucleic acid)
DNA: GCTGACTATGTGATCTTATTAAAATTAGGTTAAATTTCGAGGTTAAAAATAGTTTTAATATTGCTATAGTCTTAGAGGTCTTGTATATTTATACTTACCACACAAGATGGACCGGAGCAGCCCTCCAATATCTAGTGTACCCTCG
modifications: Plautia stali intestine virus
With B1, in data set [5], the Expression is 1.01E+05.

B2: EV A114 (nucleic acid, listed as Enterovirus sp.)
DNA: TGTGCGCCTGTTTTGAAACCCCCTCCCCCAACTCGAAACGTAGAAGTAATGTACACTACTGATCAGTAGCAGGCGTGGCGCACCAGCCATGTCTCGATCAAGCACTTCTGTTTCCCCGGACTGAGTATCAATAGACTGCTCACGCGGTTGAAGGTGAAAACGTCCGTTACCCGGCTAACTACTTCGAGAAACCTAGTAGCACCATAGAAACTGCAGAGTGTTTCGCTCAGCACTTCCCCCGTGTAGATCAGGTCGATGAGTCACTGCAATCCCCACGGGTGACCGTGGCAGTGGCTGCGTTGGCGGCCTGCCTATGGGGCAACCCATAGGACGCTCTAAGGTGGACATGGTGTGAAGAGTCTATTGAGCTAGTTAGTAGTCCTCCGGCCCCTGAATGCGGCTAATCCTAACTGTGGAGCGCATACTCCCAAACCAGGGAGCAGTGCGTCGTAACGGGCAACTCCGCAGCGGAACCGACTACTTTGGGTGTCCGTGTTTCCTTTTATTCCTATACTGGCTGCTTATGGTGACAATTGAGAGATTGTTACCATATAGCTATTGGATTGGCCATCCAGTGTGTAATAGAGCAATCATTTACCAATTTGTTGGATTTACTCCATTAACCCACACGTCTCTCAACACACTACATTTCATCTTACTACTGAACACTAGAAA
In data set [5], B2 yielded an Expression of 1.50E+08.

The values above are taken from US20230226096A1 (Orna Therapeutics, Inc., priority 2020, published 2023).
